Values after ≈ are worked out from the molar mass of the structure shown.
Experiments:
[1] = test system: normal human foreskin fibroblasts (BJ); test: Cytotoxicity, Alamar blue assay, BJ cells; format: cell-based; details: for IC50: Homo sapiens, Fibroblast, 24 h exposure, Alamar blue
From the text: (§1) Normal human foreskin (BJ) fibroblasts and two types of cancer cells, namely A549 (lung adenocarcinoma) and LNCaP (prostate carcinoma) purchased from American Type Culture Collection (Manassas, VA, USA), were used in the experiments. Each cell line was maintained in a different culture medium, depending on the metabolic necessities of the cells. BJ cells were maintained in Dulbecco’s modified Eagle’s medium (DMEM) with low glucose. A549 cells were maintained in DMEM with high glucose […], while LNCaP cells were grown in Roswell Park Memorial Institute (RPMI) 1640 medium with high glucose (5 g/L). All media used were supplemented with 10% fetal bovine serum (FBS) and were refreshed every two days. Cells were used in experiments or subcultured when they reached 70–80% confluence.
(§2) In 100 µL in 96-well plates, a number of 30,000 LNCaP cells, 15,000 A549 cells, and 7500 normal (BJ) cells were seeded. Because the cells have different sizes and volumes, the purpose of the different seedings was to achieve a confluency of 70–80% after 24 h. All types of cells were further exposed to the synthesized compounds (5a–d and 6a–d) for 24 h, at a concentration ranging from 12.5 to 100 µg/mL. Post-exposure, the media were removed, and the cells were washed with phosphate buffer saline (PBS). Their viability was evaluated using Alamar blue (AB) assay as previously described. Briefly, the cells were incubated with a 200 µM resazurin solution for 4 h. Using a Synergy 2 multi-mode microplate reader, we measured the fluorescence. The measurement was performed at λexcitation = 530/25 nm; λemission = 590/35 nm. We conducted the experiments using three biological replicates, each one including 6 technical replicates. As negative controls (NC), cells exposed to culture medium containing 0.2% DMSO were used. Compared to the NC (100%), the results were expressed as relative values. We used IC50 values for the potency evaluation, and calculated them for each cell line, using the dose-effect curves obtained by fitting the experimental data with a 4-parameter logistic curve.
(§3) Mean values ± standard deviation (SD) values of at least three biological replicates were used to calculate experimental data. One-way analysis of variance (ANOVA) with a post hoc Holm–Sidak test was used to statistically examine the data. Using SigmaPlot 11.0 software (Systat, Software Inc., Chicago, IL, USA), we performed the graphical display and data analysis. From a statistical point of view, the results were considered different, at values of p < 0.05.

[2] = Cu^2+ chelation assay (murexide competition)
From the text: With murexide as a chromophoric chelator, we performed the protocol followed for the evaluation of Cu^2+ chelating activities of the compounds using an adaptation of the method presented by Cesari et al. and Wu et al.. Using Equation (6), we calculated the copper chelation capacities of the 5a–d and 6a–d compounds:(6) copper chelation (%)=(A485/A520)control−(A485/A520)sample/(A485/A520)control×100
The evaluation of the Cu^2+ chelation activity of compounds was made based on the competition for Cu^2+ with murexide. The chelating activity of compounds for the cupric ions found in the current assay is significant for the pyrogallol derivatives, being quite close to EDTA-Na2.

[3] = Ferric reducing antioxidant potential (FRAP) assay; parameters: concentration or dose not given beside the values; details: for FRAP, % of Activity of Trolox: relative to Trolox; for FRAP, % of Activity of Ascorbic Acid: relative to ascorbic acid
Protocol: In the ferric reducing antioxidant potential (FRAP) assay, in comparison with a blank sample prepared from DMSO mixed with FRAP reagent, the absorbance of the solutions was measured at λ = 593 nm. The compounds were tested according to a modified method proposed initially by Benzie and Strain [31]. Using Equation (4), we calculated the reducing antioxidant potential of 5a–d and 6a–d as a percentage of the activity of the reference compounds:(4) % of control activity=sample absorbance/reference absorbance×100
Ferrous ions resulting from the reduction of ferric ions in the presence of an antioxidant compound form a blue-colored complex (Fe^2+-TPTZ) at pH = 3.6 with tripyridyltriazine (2,4,6-tris(2-pyridyl)-s-triazine). The intensity of the blue complex formed is proportional to the number of ferrous ions. Compounds 5a, 5c and 5d expressed a good electron donation capacity.

[4] = DPPH˙ radical scavenging assay
Protocol: The stock solutions (1 mg/mL) of the tested compounds and the controls were obtained, by dissolving the substances in dimethyl sulfoxide (DMSO). Using Jasco V-530, an UV-VIS spectrophotometer (Jasco International Co., Ltd., Tokyo, Japan), we performed the colorimetric determinations in low-volume single-use 10 mm width cuvettes.
The assays were performed in triplicate and the results are presented as averages for each assay.
The DPPH˙ radical scavenging assay is based on the transfer of one hydrogen from the analyzed compound to the violet stable free radical DPPH˙ (2,2-diphenyl-1-picrylhydrazyl), as we convert it into a yellow compound. The absorbance of the reagent mixed with samples presented inversely proportional values to the amount of DPPH˙ neutralized. The absorbance of the reagent was measured at λ = 517 nm, according to our previous reports. The assay was made in the presence of various concentrations of samples. The used protocol is based on the report of Brand-Williams et al..

[5] = test system: LNCaP (prostate carcinoma) cells; test: Cytotoxicity, Alamar blue assay, LNCaP cells; format: cell-based; details: Homo sapiens, 24 h exposure
From the text: as §1, §2, §3

[6] = Cupric reducing antioxidant capacity (CUPRAC) assay; parameters: concentration or dose not given beside the values; details: for CUPRAC, % of Activity of Trolox: relative to Trolox; for CUPRAC, % of Activity of Ascorbic Acid: relative to ascorbic acid
Protocol: The ability to donate electrons was evaluated for the compounds 5a–d and 6a–d, by the CUPRAC (CUPric reducing antioxidant capacity) method. The absorbance was measured against a blank sample, at λ = 450 nm. The assay was performed based on our group’s previous report by the adaptation of the initial report of Alam et al., Özyürek et al. and Apak et al.. With the use of Equation (4), the cupric ion reduction by compounds 5a–d and 6a–d was expressed as a percentage of the reference compound activity.
The Cu^2+ ions are reduced to Cu^+ ions by the electron-donating compounds. The Cu^+ ions are chelated by neocuproine, giving a colored complex with absorbance proportional to the quantity of Cu^+ ions that resulted.

| SMILES | IC50 [4] | IC50 (DPPH˙ scavenging) [4] | IC50 [1] | decrease of cellular viability in BJ cells ([1]; highest concentration tested, 24 h) | Cupric ions Chelation Capacity (%) ([2]; 3.36 µg/mL) | Cupric ions Chelation Capacity (%) ([2]; 8.40 µg/mL) | Cupric ions Chelation Capacity (%) ([2]; 16.80 µg/mL) | FRAP, % of Activity of Trolox [3] | FRAP, % of Activity of Ascorbic Acid [3] | % of DPPH˙ Scavenging ([4]; 1.25 µg/mL) | % of DPPH˙ Scavenging ([4]; 2.5 µg/mL) | % of DPPH˙ Scavenging ([4]; 3.75 µg/mL) | % of DPPH˙ Scavenging ([4]; 5 µg/mL) | % of DPPH˙ Scavenging ([4]; 7.5 µg/mL) | % of DPPH˙ Scavenging ([4]; 10 µg/mL) | % of DPPH˙ Scavenging ([4]; 12.5 µg/mL) | % of DPPH˙ Scavenging ([4]; 15 µg/mL) | IC50 [5] | CUPRAC, % of Activity of Trolox [6] | CUPRAC, % of Activity of Ascorbic Acid [6] |
| --- | --- | --- | --- | --- | --- | --- | --- | --- | --- | --- | --- | --- | --- | --- | --- | --- | --- | --- | --- | --- |
| CCn1c(SCC(=O)NN=Cc2ccc(O)c(O)c2O)nc2ccccc2c1=O [Compound 5c, 2-((3-Ethyl-4-oxo-3,4-dihydroquinazolin-2-yl)thio)-N’-(2,3,4-trihydroxybenzylidene)acetohydrazide] | 4.46 µM | 1.85 µg/mL (≈ 4.46 µM) | > 100 µg/mL | approximately 40% | 13.06% | 23.23% | 32.60% | 95.70% | 83.40% | 44.32% | 55.40% | 64.87% | 73.44% | 90.15% | + (+ represents more than 95%) | + (+ represents more than 95%) | + (+ represents more than 95%) | 35.9 µg/mL | 110.95% | 116.41% |
| C=CCn1c(SCC(=O)NN=Cc2ccc(O)c(O)c2O)nc2ccccc2c1=O [Compound 5a, 2-((3-Allyl-4-oxo-3,4-dihydroquinazolin-2-yl)thio)-N’-(2,3,4-trihydroxybenzylidene)acetohydrazide] | 6.47 µM | 2.76 µg/mL (≈ 6.47 µM) | > 100 µg/mL | – | 20.33% | 30.76% | 40.29% | 98.88% | 86.18% | 41.09% | 49.94% | 54.93% | 62.06% | 73.89% | + (+ represents more than 95%) | + (+ represents more than 95%) | + (+ represents more than 95%) | 45.6 µg/mL | 126.56% | 132.79% |

Continued, in another order:

| IC50 [4] | IC50 (DPPH˙ scavenging) [4] | SMILES | IC50 [1] | decrease of cellular viability in BJ cells ([1]; highest concentration tested, 24 h) | Cupric ions Chelation Capacity (%) ([2]; 3.36 µg/mL) | Cupric ions Chelation Capacity (%) ([2]; 8.40 µg/mL) | Cupric ions Chelation Capacity (%) ([2]; 16.80 µg/mL) | FRAP, % of Activity of Trolox [3] | FRAP, % of Activity of Ascorbic Acid [3] | % of DPPH˙ Scavenging ([4]; 1.25 µg/mL) | % of DPPH˙ Scavenging ([4]; 2.5 µg/mL) | % of DPPH˙ Scavenging ([4]; 3.75 µg/mL) | % of DPPH˙ Scavenging ([4]; 5 µg/mL) | % of DPPH˙ Scavenging ([4]; 7.5 µg/mL) | % of DPPH˙ Scavenging ([4]; 10 µg/mL) | % of DPPH˙ Scavenging ([4]; 12.5 µg/mL) | % of DPPH˙ Scavenging ([4]; 15 µg/mL) | IC50 [5] | CUPRAC, % of Activity of Trolox [6] | CUPRAC, % of Activity of Ascorbic Acid [6] |
| --- | --- | --- | --- | --- | --- | --- | --- | --- | --- | --- | --- | --- | --- | --- | --- | --- | --- | --- | --- | --- |
| > 30 µM | >15 µg/mL | C=CCn1c(SCC(=O)NN=C(C)c2ccc(O)cc2O)nc2ccccc2c1=O [Compound 6a, 2-((3-Allyl-4-oxo-3,4-dihydroquinazolin-2-yl)thio)-N’-(1-(2,4-dihydroxyphenyl)ethylidene)acetohydrazide] | > 100 µg/mL | – | 10.96% | 20.64% | 31.79% | 26.17% | 22.81% | - (- represents less than 5%) | - (- represents less than 5%) | - (- represents less than 5%) | - (- represents less than 5%) | - (- represents less than 5%) | - (- represents less than 5%) | 12.28% | 21.34% | 43.4 µg/mL | 12.83% | 13.46% |
| > 30 µM | >15 µg/mL | CC(=NNC(=O)CSc1nc2ccccc2c(=O)n1Cc1ccccc1)c1ccc(O)cc1O [Compound 6b, 2-((3-Benzyl-4-oxo-3,4-dihydroquinazolin-2-yl)thio)-N’-(1-(2,4-dihydroxyphenyl)ethylidene)acetohydrazide] | > 100 µg/mL | – | 6.77% | 17.17% | 30.49% | 21.24% | 18.51% | - (- represents less than 5%) | - (- represents less than 5%) | - (- represents less than 5%) | - (- represents less than 5%) | - (- represents less than 5%) | - (- represents less than 5%) | - (- represents less than 5%) | 11.59% | 30.4 µg/mL | 22.63% | 23.74% |
| > 30 µM | >15 µg/mL | CCn1c(SCC(=O)NN=C(C)c2ccc(O)cc2O)nc2ccccc2c1=O [Compound 6c, N’-(1-(2,4-dihydroxyphenyl)ethylidene)-2-((3-ethyl-4-oxo-3,4-dihydroquinazolin-2-yl)thio)acetohydrazide] | > 100 µg/mL | – | 7.47% | 16.75% | 26.72% | 29.65% | 25.85% | - (- represents less than 5%) | - (- represents less than 5%) | - (- represents less than 5%) | - (- represents less than 5%) | - (- represents less than 5%) | - (- represents less than 5%) | 10.11% | 14.89% | > 100 µg/mL | 29.09% | 30.52% |

Reference: PMC9867241, “Antioxidant and Cytotoxic Activity of New Polyphenolic Derivatives of Quinazolin-4(3H)-one: Synthesis and In Vitro Activities Evaluation” (Pharmaceutics, 2022)
